Results: EP2465840A1, “Terpene ether” (CABB GmbH, priority 2010, dated 2012)

Tests used:
[1] = Foam height of terpene ether at t=0; assay type: physicochemical
Description: (§1) Die Eigenschaften von mehreren erfindungsgemäßen Terpenethern werden in Tabelle 19 zusammengefasst und mit denen anderen Terpenethern verglichen. Tabelle 19

Dynamic surface tension = assay type: physicochemical
Description: as §1

| Compound | Schaumhöhe t=0 [1] [mm] | Dynamische Oberflächenspannung Blasenfrequenz 1 Hz (Dynamic surface tension) [mN/m] | Dynamische Oberflächenspannung Blasenfrequenz 3 Hz (Dynamic surface tension) [mN/m] |
| --- | --- | --- | --- |
| CC(=O)OCC(COC1CC2CCC1(C)C2(C)C)OC(C)=O (stereo not drawn) [NP7, Diacetin-isobornytether] | 0 | 52 | 57 |
| S-(-)-Milchsäuremethylester-isobornylether [NP2] | 0 | 65 | 67 |
| CC1(C)C2CCC1(C)C(OCCOC1CC3CCC1(C)C3(C)C)C2 (stereo not drawn) [NP 23, Ethylenglykol-diisobornylether] | 6 | 66 | 68 |
| Tripropylenglykol-isobornylether [NP 3] | 0 | 45 | 63 |
| Dipropylenglykol-düsobornylether [NP 22] | 0 | 64 | 68 |
| Milchsäure-isobornylether [NP 14] | 0 | 45 | 47 |
| CC1(C)C2CCC1(C)C(OCCOCCOCCO)C2 (stereo not drawn) [NP 6, Triethylenglykol-isobornylether] | 0 | 43 | 45 |
